According to patent publication US20170247326A1, “Substituted Pyrrolidine Carboxamide Compounds” (EPIZYME, INC., priority 2014, published 2017):
Where two headings read alike, the source gives them in different places.

Legend:
[1] = tested on: esophageal, liver and breast cancer cell lines; settings: dose-dependent; Nguyen et al. J Biol Chem. 2015; cited from earlier work
[2] = target: T1, SMYD2 (Homo sapiens, UniProt Q9NRG4); test: SMYD2 biochemical assay (3H-SAM, biotinylated peptide substrate, Flashplate); settings: average of n = 1 to n = 50, read-out: SMYD2 Biochem IC50
T1 construct: Full length SMYD2 (NP_064582.2) was cloned; His6 (N, cleaved yes); FLAG (N); made in house; host or cells: Sf9 insect cells
T1 sequence (Q9NRG4 whole entry): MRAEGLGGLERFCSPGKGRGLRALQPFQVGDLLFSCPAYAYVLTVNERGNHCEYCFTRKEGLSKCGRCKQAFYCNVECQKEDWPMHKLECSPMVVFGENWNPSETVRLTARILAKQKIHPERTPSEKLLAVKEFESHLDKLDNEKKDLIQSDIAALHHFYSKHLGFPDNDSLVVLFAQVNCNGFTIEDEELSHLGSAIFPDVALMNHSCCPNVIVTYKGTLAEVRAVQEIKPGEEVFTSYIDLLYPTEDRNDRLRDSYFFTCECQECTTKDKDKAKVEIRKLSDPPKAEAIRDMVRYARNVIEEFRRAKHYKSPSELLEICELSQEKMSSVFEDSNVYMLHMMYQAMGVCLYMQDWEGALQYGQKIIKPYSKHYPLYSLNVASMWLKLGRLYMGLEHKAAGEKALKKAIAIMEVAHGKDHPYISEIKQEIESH
Outline: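 Full-length His/FLAG-tagged SMYD2 (tag removed, Sf9-expressed) at 1.5 nM was preincubated with compound for 30 min at room temperature in Bicine pH 7.6 buffer with 2% DMSO. Reaction used 10 nM 3H-SAM and 60 nM biotinylated peptide, stopped with 600 uM cold SAM. Streptavidin-captured 3H-peptide counted; IC50 from 3- or 4-parameter fit.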

Which “proliferation of several esophageal, liver and breast cancer cell lines” value [1] does the source give for `Cc1cn(CCN2CCN(c3ccccc3-c3cc(C#N)cc(C(=O)NCCCN4CCCC4)c3)CC2)c2ccccc12` [LLY-507] here?
Its value is “inhibited the proliferation”.

For `C[C@H]1CN(C2CC2)C[C@@H]1NC(=O)c1ccc2[nH]c(=O)oc2c1` (racemic) [compound 13, (±)-trans-N-(1-cyclopropyl-4-methylpyrrolidin-3-yl)-2-oxo-2,3-dihydrobenzo[d]oxazole-6-carboxamide], which IC50 ([2]; Table 1) is on record?
Its IC50 is > 50 µM.

Which IC50 ([2]; Table 3) does the source give for `CC(C)N1C[C@H](C)[C@H](NC(=O)c2noc(C3CC3)n2)C1` (racemic) [compound 38, (±)-cis-5-cyclopropyl-N-[4-methyl-1-(propan-2-yl)pyrrolidin-3-yl]-1,2,4-oxadiazole-3-carboxamide] here?
Its IC50 is > 50 µM.

With `CC(C)N1C[C@H](C)[C@H](NC(=O)c2nnc(C3CC3)s2)C1` (racemic) [compound 41, (±)-cis-5-cyclopropyl-N-[4-methyl-1-(propan-2-yl)pyrrolidin-3-yl]-1,3,4-thiadiazole-2-carboxamide] as the compound, how does the IC50 ([2]; Table 3) read?
Its IC50 is 2.68 µM.

For `CC(C)N1C[C@H](C)[C@H](NC(=O)c2nsc(C3CC3)n2)C1` (racemic) [compound 88, (±)-cis-5-cyclopropyl-N-[4-methyl-1-(propan-2-yl)pyrrolidin-3-yl]-1,2,4-thiadiazole-3-carboxamide], which IC50 ([2]; Table 3) is on record?
The IC50 was > 50 µM.

Which IC50 ([2]; Table 3) does the source give for `CC(C)N1C[C@H](C)[C@H](NC(=O)c2c[nH]c(C3CC3)n2)C1` (racemic) [compound 77, (±)-cis-2-cyclopropyl-N-[4-methyl-1-(propan-2-yl)pyrrolidin-3-yl]-1H-imidazole-4-carboxamide] here?
Its IC50 is > 50 µM.

Which IC50 ([2]; Table 3) does the source give for `CC(C)N1C[C@@H](C)[C@@H](NC(=O)c2nc(C3CC3)ns2)C1` (racemic) [compound 86, (±)-cis-3-cyclopropyl-N-[4-methyl-1-(propan-2-yl)pyrrolidin-3-yl]-1,2,4-thiadiazole-5-carboxamide] here?
Its IC50 is > 50 µM.

For `C[C@@H]1CN(C2CC2)C[C@H]1NC(=O)c1cc(O)nn1C` (racemic) [compound 15, (±)-trans-H-(1-cyclopropyl-4-methylpyrrolidin-3-yl)-3-hydroxy-1-methyl-1H-pyrazole-5-carboxamide], which IC50 ([2]; Table 1) is on record?
The IC50 was > 50 µM.

With `C[C@@H]1CN(Cc2ccc(OCc3ccccc3)cc2)C[C@@H]1NC(=O)c1cn(C2CC2)nn1` (stereo in doubt) [compound 131, rac-N-((3R,4R)-1-(4-(benzyloxy)benzyl)-4-methylpyrrolidin-3-yl)-1-cyclopropyl-1H-1,2,3-triazole-4-carboxamide] as the compound, how does the IC50 ([2]; Table 4) read?
The IC50 was 0.46 µM.
